The results in this text go back to US11370798B2 (Vertex Pharmaceuticals Incorporated, priority 2012, dated 2022).

This experiment concerns HCT116 colorectal cancer cells. In words: Cisplatin sensitization assay (96 h cell viability MTS).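 Note: Test-compound concentration that lowers the Cisplatin IC50 by a set fold.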 Type of experiment: cell-based. The note with it: compound and Cisplatin added simultaneously, Cisplatin sensitization value. In short, it runs like this:
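Viability read by MTS (1 h at 37° C) after 96 h co-exposure at 37° C, 5% CO2. Test compound and cisplatin were dosed simultaneously in a full concentration matrix, each 2-fold serially diluted from 10 μM final; sensitization values binned in μM.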

As for `CN(C)CC(=O)N1CCN(c2c(F)cncc2NC(=O)c2c(N)nn3cc(F)cnc23)CC1` [I-N-153, 2-amino-N-(4-(4-(2-(dimethylamino)acetyl)piperazin-1-yl)-5-fluoropyridin-3-yl)-6-fluoropyrazolo[1,5-a]pyrimidine-3-carboxamide], the “Cisplatin Sensitization Assay” value is “++ (Cisplatin sensitization value>0.02 μM but <0.2 μM)”. The result for `CN1CCC(OC2CCN(c3ccncc3NC(=O)c3c(N)nn4cc(F)cnc34)CC2)CC1` [I-N-154, 2-amino-6-fluoro-N-(4-(4-((1-methylpiperidin-4-yl)oxy)piperidin-1-yl)pyridin-3-yl)pyrazolo[1,5-a]pyrimidine-3-carboxamide] reads “+++ (Cisplatin sensitization value of <0.02 μM)”. The result for `Nc1nn2cc(F)cnc2c1C(=O)Nc1cncc(F)c1N1CCC(S(=O)(=O)N2CCOCC2)CC1` [I-N-155, 2-amino-6-fluoro-N-(5-fluoro-4-(4-(morpholinosulfonyl)piperidin-1-yl)pyridin-3-yl)pyrazolo[1,5-a]pyrimidine-3-carboxamide] reads “+++ (Cisplatin sensitization value of <0.02 μM)”; that for `CN1CCC(C(=O)N2CCN(c3c(F)cncc3NC(=O)c3c(N)nn4cc(F)cnc34)CC2)C1` (centres unmarked) [I-N-156, 2-amino-6-fluoro-N-(5-fluoro-4-(4-(1-methylpyrrolidine-3-carbonyl)piperazin-1-yl)pyridin-3-yl)pyrazolo[1,5-a]pyrimidine-3-carboxamide], “+++ (Cisplatin sensitization value of <0.02 μM)”.

With `CN1CCC[C@H]1C(=O)N1CCN(c2c(F)cncc2NC(=O)c2c(N)nn3cc(F)cnc23)CC1` [I-N-157, (S)-2-amino-6-fluoro-N-(5-fluoro-4-(4-(1-methylpyrrolidine-2-carbonyl)piperazin-1-yl)pyridin-3-yl)pyrazolo[1,5-a]pyrimidine-3-carboxamide], the “Cisplatin Sensitization Assay” value is on record as “++ (Cisplatin sensitization value>0.02 μM but <0.2 μM)”. With `Nc1nn2cc(F)cnc2c1C(=O)Nc1cncc(F)c1N1CCN(S(=O)(=O)C2CCOCC2)CC1` [I-N-158, 2-amino-6-fluoro-N-(5-fluoro-4-(4-((tetrahydro-2H-pyran-4-yl)sulfonyl)piperazin-1-yl)pyridin-3-yl)pyrazolo[1,5-a]pyrimidine-3-carboxamide] the entry was “+++ (Cisplatin sensitization value of <0.02 μM)”. The result for `Nc1nn2cc(F)cnc2c1C(=O)Nc1cncc(F)c1N1CCN(S(=O)(=O)C2CC2)CC1` [I-N-159, 2-amino-N-(4-(4-(cyclopropylsulfonyl)piperazin-1-yl)-5-fluoropyridin-3-yl)-6-fluoropyrazolo[1,5-a]pyrimidine-3-carboxamide] reads “+++ (Cisplatin sensitization value of <0.02 μM)”; that for `Nc1nn2cc(F)cnc2c1C(=O)Nc1cncc(F)c1N1CCN(C(=O)CN2CCC2)CC1` [I-N-160, 2-amino-N-(4-(4-(2-(azetidin-1-yl)acetyl)piperazin-1-yl)-5-fluoropyridin-3-yl)-6-fluoropyrazolo[1,5-a]pyrimidine-3-carboxamide], “+++ (Cisplatin sensitization value of <0.02 μM)”. The result for `Cc1ncn(-c2ccncc2NC(=O)c2c(N)nn3cc(F)cnc23)n1` [I-N-161, 2-amino-6-fluoro-N-(4-(3-methyl-1H-1,2,4-triazol-1-yl)pyridin-3-yl)pyrazolo[1,5-a]pyrimidine-3-carboxamide] reads “+ (Cisplatin sensitization value>0.2 μM but <5 μM)”; that for `Cc1ncnn1-c1ccncc1NC(=O)c1c(N)nn2cc(F)cnc12` [I-N-162, 2-amino-6-fluoro-N-(4-(5-methyl-1H-1,2,4-triazol-1-yl)pyridin-3-yl)pyrazolo[1,5-a]pyrimidine-3-carboxamide], “++ (Cisplatin sensitization value>0.02 μM but <0.2 μM)”; that for `Nc1nn2cc(F)cnc2c1C(=O)Nc1cncc(F)c1N1CCN2C(=O)CCC2C1` (centres unmarked) [I-N-163, 2-amino-6-fluoro-N-(5-fluoro-4-(6-oxohexahydropyrrolo[1,2-a]pyrazin-2(1H)-yl)pyridin-3-yl)pyrazolo[1,5-a]pyrimidine-3-carboxamide], “+++ (Cisplatin sensitization value of <0.02 μM)”. As for `CN1CC(OC2CCN(c3ccncc3NC(=O)c3c(N)nn4cc(F)cnc34)CC2)C1` [I-N-164, 2-amino-6-fluoro-N-(4-(4-((1-methylazetidin-3-yl)oxy)piperidin-1-yl)pyridin-3-yl)pyrazolo[1,5-a]pyrimidine-3-carboxamide], the “Cisplatin Sensitization Assay” value is given as “+++ (Cisplatin sensitization value of <0.02 μM)”. With `CS(=O)(=O)C1CCN(c2c(F)cncc2NC(=O)c2c(N)nn3cc(F)cnc23)CC1` [I-N-165, 2-amino-6-fluoro-N-(5-fluoro-4-(4-(methylsulfonyl)piperidin-1-yl)pyridin-3-yl)pyrazolo[1,5-a]pyrimidine-3-carboxamide] the entry was “+++ (Cisplatin sensitization value of <0.02 μM)”. In the case of `CN1CCN(S(=O)(=O)C2CCN(c3c(F)cncc3NC(=O)c3c(N)nn4cc(F)cnc34)CC2)CC1` [I-N-166, 2-amino-6-fluoro-N-(5-fluoro-4-(4-((4-methylpiperazin-1-yl)sulfonyl)piperidin-1-yl)pyridin-3-yl)pyrazolo[1,5-a]pyrimidine-3-carboxamide], the “Cisplatin Sensitization Assay” value is given as “+++ (Cisplatin sensitization value of <0.02 μM)”. The result for `Nc1nn2cc(F)cnc2c1C(=O)Nc1cncc(F)c1N1CCC(OCCN2CCCC2)CC1` [I-N-167, 2-amino-6-fluoro-N-(5-fluoro-4-(4-(2-(pyrrolidin-1-yl)ethoxy)piperidin-1-yl)pyridin-3-yl)pyrazolo[1,5-a]pyrimidine-3-carboxamide] reads “+++ (Cisplatin sensitization value of <0.02 μM)”. The result for `Nc1nn2cc(F)cnc2c1C(=O)Nc1cncc(F)c1N1CCN(C(=O)C2CNC2)CC1` [I-N-168, 2-amino-N-(4-(4-(azetidine-3-carbonyl)piperazin-1-yl)-5-fluoropyridin-3-yl)-6-fluoropyrazolo[1,5-a]pyrimidine-3-carboxamide] reads “+ (Cisplatin sensitization value>0.2 μM but <5 μM)”; that for `Nc1nn2cc(F)cnc2c1C(=O)Nc1cncc(F)c1N1CCC(S(=O)(=O)N2CCC2)CC1` [I-N-169, 2-amino-N-(4-(4-(azetidin-1-ylsulfonyl)piperidin-1-yl)-5-fluoropyridin-3-yl)-6-fluoropyrazolo[1,5-a]pyrimidine-3-carboxamide], “+++ (Cisplatin sensitization value of <0.02 μM)”; that for `Nc1nn2cc(F)cnc2c1C(=O)Nc1cnccc1N1CCC(S(=O)(=O)N2CCOCC2)CC1` [I-N-170, 2-amino-6-fluoro-N-(4-(4-(morpholinosulfonyl)piperidin-1-yl)pyridin-3-yl)pyrazolo[1,5-a]pyrimidine-3-carboxamide], “+++ (Cisplatin sensitization value of <0.02 μM)”. The result for `CN1CCN(CC2CCN(c3c(F)cncc3NC(=O)c3c(N)nn4cc(F)cnc34)CC2)CC1=O` [I-N-171, 2-amino-6-fluoro-N-(5-fluoro-4-(4-((4-methyl-3-oxopiperazin-1-yl)methyl)piperidin-1-yl)pyridin-3-yl)pyrazolo[1,5-a]pyrimidine-3-carboxamide] reads “+++ (Cisplatin sensitization value of <0.02 μM)”. As for `Nc1nn2cc(F)cnc2c1C(=O)Nc1cncc(F)c1N1CCN(C(=O)C2CNCCO2)CC1` (centres unmarked) [I-N-172, 2-amino-6-fluoro-N-(5-fluoro-4-(4-(morpholine-2-carbonyl)piperazin-1-yl)pyridin-3-yl)pyrazolo[1,5-a]pyrimidine-3-carboxamide], the “Cisplatin Sensitization Assay” value is “+++ (Cisplatin sensitization value of <0.02 μM)”.

Turning to `CN1CCCCC1C(=O)N1CCN(c2c(F)cncc2NC(=O)c2c(N)nn3cc(F)cnc23)CC1` (centres unmarked) [I-N-173, 2-amino-6-fluoro-N-(5-fluoro-4-(4-(1-methylpiperidine-2-carbonyl)piperazin-1-yl)pyridin-3-yl)pyrazolo[1,5-a]pyrimidine-3-carboxamide], the “Cisplatin Sensitization Assay” value is reported as “+++ (Cisplatin sensitization value of <0.02 μM)”. Regarding `CN1CCOC(C(=O)N2CCN(c3c(F)cncc3NC(=O)c3c(N)nn4cc(F)cnc34)CC2)C1` (centres unmarked) [I-N-174, 2-amino-6-fluoro-N-(5-fluoro-4-(4-(4-methylmorpholine-2-carbonyl)piperazin-1-yl)pyridin-3-yl)pyrazolo[1,5-a]pyrimidine-3-carboxamide], the “Cisplatin Sensitization Assay” value is “+++ (Cisplatin sensitization value of <0.02 μM)”.

Regarding `CN1CCC(S(=O)(=O)N2CCN(c3c(F)cncc3NC(=O)c3c(N)nn4cc(F)cnc34)CC2)CC1` [I-N-175, 2-amino-6-fluoro-N-(5-fluoro-4-(4-((1-methylpiperidin-4-yl)sulfonyl)piperazin-1-yl)pyridin-3-yl)pyrazolo[1,5-a]pyrimidine-3-carboxamide], the “Cisplatin Sensitization Assay” value is “+++ (Cisplatin sensitization value of <0.02 μM)”.

Take `Nc1nn2cc(F)cnc2c1C(=O)Nc1cnccc1N1CCN(S(=O)(=O)C2CC2)CC1` [I-N-176, 2-amino-N-(4-(4-(cyclopropylsulfonyl)piperazin-1-yl)pyridin-3-yl)-6-fluoropyrazolo[1,5-a]pyrimidine-3-carboxamide]: the “Cisplatin Sensitization Assay” value was “+++ (Cisplatin sensitization value of <0.02 μM)”. The result for `Nc1nn2cc(F)cnc2c1C(=O)Nc1cnccc1N1CCN(S(=O)(=O)C2CCOCC2)CC1` [I-N-177, 2-amino-6-fluoro-N-(4-(4-((tetrahydro-2H-pyran-4-yl)sulfonyl)piperazin-1-yl)pyridin-3-yl)pyrazolo[1,5-a]pyrimidine-3-carboxamide] reads “+++ (Cisplatin sensitization value of <0.02 μM)”.

In the case of `CS(=O)(=O)N1CCN(c2ccncc2NC(=O)c2c(N)nn3cc(F)cnc23)CC1` [I-N-178, 2-amino-6-fluoro-N-(4-(4-(methylsulfonyl)piperazin-1-yl)pyridin-3-yl)pyrazolo[1,5-a]pyrimidine-3-carboxamide], the “Cisplatin Sensitization Assay” value was “+++ (Cisplatin sensitization value of <0.02 μM)”.
